Results taken from patent US20160280699A1, “SUBSTITUTED PHENYLALANINE DERIVATIVES” (BAYER PHARMA AKTIENGESELLSCHAFT, priority 2013, published 2016).
Where a name gives a salt, the structure may show the parent alone.

How the values were obtained:
[1] = test system: human and animal plasma; assay: Determination of anticoagulatory activity: activated partial thromboplastin time (aPTT) in plasma; assay type: biochemical; conditions: concentration of test substance which brings about a 1.5-fold extension of the aPTT, 37° C., C.K. Prest kit
Procedure: The anticoagulatory activity of the test substances is determined in vitro in human and animal plasma (for example mouse, rat, rabbit, pig and dog plasma). To this end, blood is drawn off in a mixing ratio of sodium citrate/blood of 1:9 using a 0.11 molar sodium citrate solution as receiver. Immediately after the blood has been drawn off, it is mixed thoroughly and centrifuged at about 4000 g for 15 minutes. The supernatant is pipetted off.
The activated partial thromboplastin time (aPTT) is determined in the presence of varying concentrations of test substance or the corresponding solvent using a commercial test kit (C.K. Prest from Diagnostica Stago). The test compounds are incubated with the plasma and the PTT reagent (cephalin, kaolin) at 37° C. for 3 minutes. Coagulation is then started by addition of a 25 mM aqueous calcium chloride solution, and the time when coagulation occurs is determined. The concentration of test substance which brings about a 1.5-fold extension of the aPTT is determined Activity data from this test are listed in Table B below: […]

[2] = target: T1, human factor XIa (Homo sapiens, UniProt P03951); assay: Measurement of FXIa inhibition (fluorogenic peptide substrate Boc-Glu(OBzl)-Ala-Arg-AMC); assay type: biochemical; conditions: factor XIa from Kordia, 15 min preincubation, 30 min at 22° C., fluorescence
T1 construct: purchased Kordia
Procedure: The factor XIa inhibition of the substances according to the invention is determined using a biochemical test system which utilizes the reaction of a peptidic factor XIa substrate to determine the enzymatic activity of human factor XIa. Here, factor XIa cleaves from the peptic factor XIa substrate the C-terminal aminomethylcoumarin (AMC), the fluorescence of which is measured. The determinations are carried out in microtitre plates.
Test substances are dissolved in dimethyl sulphoxide and serially diluted in dimethyl sulphoxide (3000 μM to 0.0078 μM; resulting final concentrations in the test: 50 μM to 0.00013 μM). In each case 1 μl of the diluted substance solutions is placed into the wells of white microtitre plates from Greiner (384 wells). Subsequently, the following are added successively: 20 μl of assay buffer (50 mmol/l Tris buffer pH 7.4; 100 mmol/l sodium chloride; 5 mmol/l calcium chloride; 0.1% bovine serum albumin) and 20 μl of factor XIa from Kordia (0.45 nM in assay buffer). After 15 min of incubation, the enzyme reaction is started by addition of 20 μl of the factor XIa substrate Boc-Glu(OBzl)-Ala-Arg-AMC dissolved in assay buffer (10 μM in assay buffer) from Bachem, the mixture is incubated at room temperature (22° C.) for 30 min and fluorescence is then measured (excitation: 360 nm, emission: 460 nm). The measured emissions of the test batches with test substance are compared to those of control batches without test substance (only dimethyl sulphoxide instead of test substance in dimethyl sulphoxide), and IC50 values are calculated from the concentration/activity relationships.

T1 sequence (P03951 388-625 limits assumed): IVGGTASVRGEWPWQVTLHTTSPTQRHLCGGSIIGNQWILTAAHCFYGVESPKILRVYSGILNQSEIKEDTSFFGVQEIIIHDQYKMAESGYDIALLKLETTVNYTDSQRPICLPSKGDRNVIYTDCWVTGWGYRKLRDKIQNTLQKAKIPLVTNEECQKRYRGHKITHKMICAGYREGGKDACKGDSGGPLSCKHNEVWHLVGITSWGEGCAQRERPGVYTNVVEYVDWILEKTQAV
T1 sequence (P03951 19-387 partner limits assumed): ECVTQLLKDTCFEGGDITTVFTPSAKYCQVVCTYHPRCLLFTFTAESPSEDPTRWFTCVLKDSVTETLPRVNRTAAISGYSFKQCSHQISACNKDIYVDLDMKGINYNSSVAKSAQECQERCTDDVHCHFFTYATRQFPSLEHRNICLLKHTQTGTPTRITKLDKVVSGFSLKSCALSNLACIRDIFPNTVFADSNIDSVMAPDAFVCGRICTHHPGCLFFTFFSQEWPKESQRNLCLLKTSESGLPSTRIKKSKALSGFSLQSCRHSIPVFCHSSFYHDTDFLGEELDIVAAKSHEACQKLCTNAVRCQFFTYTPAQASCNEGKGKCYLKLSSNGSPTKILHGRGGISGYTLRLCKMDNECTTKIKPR

Compound	aPTT [1] [µmol/L]	IC50 [2] [nM]
NC[C@H]1CC[C@H](C(=O)N[C@@H](Cc2ccc(-c3ccc(C(F)(F)F)nc3)cc2)C(=O)Nc2ccc(-c3nn[nH]n3)cc2)CC1 [Example 18, N-alpha-{[trans-4-(Aminomethyl)cyclohexyl]carbonyl}-N-[4-(2H-tetrazol-5-yl)phenyl]-4-[6-(trifluoromethyl)pyridin-3-yl]-L-phenylalaninamide hydrochloride]	0.33	2.7
CN(C)CCCOc1ccc(-c2ccc(C[C@H](NC(=O)[C@H]3CC[C@H](CN)CC3)C(=O)Nc3ccc(-c4noc(=O)[nH]4)cc3)cc2)cn1 [Example 19, N-alpha-{[trans-4-(Aminomethyl)cyclohexyl]carbonyl}-4-{6-[3-(dimethylamino)propoxy]pyridin-3-yl}-N-[4-(5-oxo-4,5-dihydro-1,2,4-oxadiazol-3-yl)phenyl]-L-phenylalaninamide hydrochloride]	0.17	16
COc1cnccc1-c1ccc(C[C@H](NC(=O)[C@H]2CC[C@H](CN)CC2)C(=O)Nc2ccc(-c3nn[nH]n3)cc2)cc1 [Example 20, N-alpha-{[trans-4-(Aminomethyl)cyclohexyl]carbonyl}-4-(3-methoxypyridin-4-yl)-N-[4-(2H-tetrazol-5-yl)phenyl]-L-phenylalaninamide hydrochloride]	0.22	3.8
COc1ccc(-c2ccc(C[C@H](NC(=O)[C@H]3CC[C@H](CN)CC3)C(=O)Nc3ccc(-c4nn[nH]n4)cc3)cc2)c(C)n1 [Example 21, N-alpha-{[trans-4-(Aminomethyl)cyclohexyl]carbonyl}-4-(6-methoxy-2-methylpyridin-3-yl)-N-[4-(2H-tetrazol-5-yl)phenyl]-L-phenylalaninamide hydrochloride]	0.27	1.3
CN(C)c1ncc(-c2ccc(C[C@H](NC(=O)[C@H]3CC[C@H](CN)CC3)C(=O)Nc3ccc(-c4nn[nH]n4)cc3)cc2)c(OCc2ccccc2)n1 [Example 22, N-alpha-{[trans-4-(Aminomethyl)cyclohexyl]carbonyl}-4-[4-(benzyloxy)-2-(dimethylamino)-pyrimidin-5-yl]-N-[4-(2H-tetrazol-5-yl)phenyl]-L-phenylalaninamide hydrochloride]	0.27	6.1
Cc1cnccc1-c1ccc(C[C@H](NC(=O)[C@H]2CC[C@H](CN)CC2)C(=O)Nc2ccc3c(=O)[nH][nH]c3c2)cc1 [Example 23, N-alpha-{[trans-4-(Aminomethyl)cyclohexyl]carbonyl}-4-(3-methylpyridin-4-yl)-N-(3-oxo-2,3-dihydro-1H-indazol-6-yl)-L-phenylalaninamide hydrochloride]	0.24	3.6
NC[C@H]1CC[C@H](C(=O)N[C@@H](Cc2ccc(-c3ccc(N4CCOCC4)nc3)cc2)C(=O)Nc2ccc3c(=O)[nH][nH]c3c2)CC1 [Example 24, N-alpha-{[trans-4-(Aminomethyl)cyclohexyl]carbonyl}-4-[6-(morpholin-4-yl)pyridin-3-yl]-N-(3-oxo-2,3-dihydro-1H-indazol-6-yl)-L-phenylalaninamide hydrochloride]	0.18	3.1
CN(C)c1ncc(-c2ccc(C[C@H](NC(=O)[C@H]3CC[C@H](CN)CC3)C(=O)Nc3ccc(-c4nn[nH]n4)cc3)cc2)cn1 [Example 25, N-alpha-{[trans-4-(Aminomethyl)cyclohexyl]carbonyl}-4-[2-(dimethylamino)pyrimidin-5-yl]-N-[4-(2H-tetrazol-5-yl)phenyl]-L-phenylalaninamide hydrochloride]	0.29	8
NC[C@H]1CC[C@H](C(=O)N[C@@H](Cc2ccc(-c3cccnc3N)cc2)C(=O)Nc2ccc(-c3nn[nH]n3)cc2)CC1 [Example 26, N-alpha-{[trans-4-(Aminomethyl)cyclohexyl]carbonyl}-4-(2-aminopyridin-3-yl)-N-[4-(2H-tetrazol-5-yl)phenyl]-L-phenylalaninamide hydrochloride]	0.19	3.7
Cc1ncccc1-c1ccc(C[C@H](NC(=O)[C@H]2CC[C@H](CN)CC2)C(=O)Nc2ccc3c(=O)[nH][nH]c3c2)cc1 [Example 27, N-alpha-{[trans-4-(Aminomethyl)cyclohexyl]carbonyl}-4-(2-methylpyridin-3-yl)-N-(3-oxo-2,3-dihydro-1H-indazol-6-yl)-L-phenylalaninamide hydrochloride]	0.24	5.6
Cc1cc(N2CCOCC2)ncc1-c1ccc(C[C@H](NC(=O)[C@H]2CC[C@H](CN)CC2)C(=O)Nc2ccc(-c3nn[nH]n3)cc2)cc1 [Example 29, N-alpha-{[trans-4-(Aminomethyl)cyclohexyl]carbonyl}-4-[4-methyl-6-(morpholin-4-yl)pyridin-3-yl]-N-[4-(2H-tetrazol-5-yl)phenyl]-L-phenylalaninamide hydrochloride]	0.21	1.3
COc1ccc(-c2ccc(C[C@H](NC(=O)[C@H]3CC[C@H](CN)CC3)C(=O)Nc3ccc4c(=O)[nH][nH]c4c3)cc2)c(C)n1 [Example 30, N-alpha-{[trans-4-(Aminomethyl)cyclohexyl]carbonyl}-4-(6-methoxy-2-methylpyridin-3-yl)-N-(3-oxo-2,3-dihydro-1H-indazol-6-yl)-L-phenylalaninamide hydrochloride]	0.34	6.7
COc1nc(N2CCN(C)CC2)ncc1-c1ccc(C[C@H](NC(=O)[C@H]2CC[C@H](CN)CC2)C(=O)Nc2ccc(-c3nn[nH]n3)cc2)cc1 [Example 31, N-alpha-{[trans-4-(Aminomethyl)cyclohexyl]carbonyl}-4-[4-methoxy-2-(4-methylpiperazin-1-yl)pyrimidin-5-yl]-N-[4-(2H-tetrazol-5-yl)phenyl]-L-phenylalaninamide hydrochloride]	0.22	15
NC[C@H]1CC[C@H](C(=O)N[C@@H](Cc2ccc(-c3ccc(Oc4cccnc4)nc3)cc2)C(=O)Nc2ccc(-c3nn[nH]n3)cc2)CC1 [Example 32, N-alpha-{[trans-4-(Aminomethyl)cyclohexyl]carbonyl}-4-[6-(pyridin-3-yloxy)pyridin-3-yl]-N-[4-(2H-tetrazol-5-yl)phenyl]-L-phenylalaninamide hydrochloride]	0.3	2.4
NC[C@H]1CC[C@H](C(=O)N[C@@H](Cc2ccc(-c3ccnc(N4CCNCC4)c3)cc2)C(=O)Nc2ccc(-c3nn[nH]n3)cc2)CC1 [Example 33, N-alpha-{[trans-4-(Aminomethyl)cyclohexyl]carbonyl}-4-[2-(piperazin-1-yl)pyridin-4-yl]-N-[4-(2H-tetrazol-5-yl)phenyl]-L-phenylalaninamide hydrochloride]	0.29	20
NC[C@H]1CC[C@H](C(=O)N[C@@H](Cc2ccc(-c3ccc(N4CCOCC4)nc3)cc2)C(=O)Nc2ccc(-c3cc(=O)[nH][nH]3)cc2)CC1 [Example 34, N-alpha-{[trans-4-(Aminomethyl)cyclohexyl]carbonyl}-4-[6-(morpholin-4-yl)pyridin-3-yl]-N-[4-(5-oxo-2,5-dihydro-1H-pyrazol-3-yl)phenyl]-L-phenylalaninamide hydrochloride]	0.14	5.4
NC[C@H]1CC[C@H](C(=O)N[C@@H](Cc2ccc(-c3ccnc(N4CCOCC4)c3)cc2)C(=O)Nc2ccc(-c3nn[nH]n3)cc2)CC1 [Example 35, N-alpha-{[trans-4-(Aminomethyl)cyclohexyl]carbonyl}-4-[2-(morpholin-4-yl)pyridin-4-yl]-N-[4-(2H-tetrazol-5-yl)phenyl]-L-phenylalaninamide hydrochloride]	0.48	5.5
NC[C@H]1CC[C@H](C(=O)N[C@@H](Cc2ccc(-c3cccnc3O)cc2)C(=O)Nc2ccc(-c3nn[nH]n3)cc2)CC1 [Example 37, N-alpha-{[trans-4-(Aminomethyl)cyclohexyl]carbonyl}-4-(2-hydroxypyridin-3-yl)-N-[4-(2H-tetrazol-5-yl)phenyl]-L-phenylalaninamide hydrochloride]	0.26	5.3
